The source of these data is US12258326B2, “Pyrazole derivative and harmful organism-controlling agent” (KUMIAI CHEMICAL INDUSTRY CO., LTD., priority 2018, dated 2025).

Read-outs that look alike come from different tables or passages of the source.

What all share (type): in vivo
Experiment [1] relates to Plutella xylostella. The experiment can be described thus: Plutella xylostella killing test. To be noted: 144 h, active ingredient 500 ppm, dipped cabbage leaf, second instar larvae, after 6 days, 25° C., read-out: insect mortality. On the procedure:
(§1) The water-dispersible powder prepared in accordance with Formulation example 2 was diluted in water so that the concentration of the active ingredient was 500 ppm. A cabbage leaf was dipped in this liquid agent, and air-dried, and then put into a plastic cup. Ten second instar larvae of Plutella xylostella were released in the cup, and the cup was lidded. Then, the cup was placed in a thermostatic chamber at 25° C., and the number of dead insects was examined after 6 days, and the insect mortality was determined by the calculation formula of numerical formula 1. The test was conducted singly.

Experiment [2] relates to Helicoverpa armigera. The experiment can be described thus: Helicoverpa armigera killing test. To be noted: 144 h, active ingredient 500 ppm, dipped cabbage leaf, newly hatched larvae, after 6 days, 25° C., read-out: insect mortality. The protocol:
as §1, with “Five newly hatched” for “Ten second instar”, “Helicoverpa armigera” for “Plutella xylostella”, “in duplicate.” for “singly.”

The test system of experiment [3] is Aphis gossypii. Briefly: Aphis gossypii killing test. The note with it: read-out: insect mortality. The protocol: The water-dispersible powder prepared in accordance with Formulation example 2 was diluted in water so that the concentration of the active ingredient was 500 ppm. A nursery plant of cucumber preliminarily inoculated with nymphs of Aphis gossypii was dipped in this liquid agent, and air-dried. The nursery plant of cucumber after the treatment was placed in a thermostatic chamber at 25° C., and the number of live insects was counted after 3 days, and the insect mortality was determined by the calculation formula of numerical formula 1. The test was conducted singly.

For experiment [4], the system named is Nilaparvata lugens. The experiment can be described thus: Nilaparvata lugens killing activity test. The note with it: 144 h, active ingredient 500 ppm, dipped paddy, second instar larvae, after 6 days, 25° C., read-out: insect mortality. On the procedure: The water-dispersible powder prepared in accordance with Formulation example 2 was diluted in water so that the concentration of the active ingredient was 500 ppm. Paddy was dipped in this liquid agent, and then put into a plastic cup. Ten second instar larvae of Nilaparvata lugens were released in the plastic cup, and the cup was lidded, and placed in a thermostatic chamber at 25° C. After 6 days, the number of live insects was counted, and the insect mortality was determined by the calculation formula of numerical formula 1. The test was conducted singly.

Setting [5] is: active ingredient 500 ppm, dipped cucumber nursery plant inoculated with nymphs, after 3 days, 25° C.

A word on the mortality: it is the percentage killed. For the molecule `Cc1ccccc1-c1cn(-c2cccnc2)nc1C(N)=O` [A-0020, 1-(pyridine-3-yl)-4-(2-methylphenyl)-1H-pyrazole-3-carboxamide], the mortality at 500 ppm in experiment [1], in experiment [2], in experiment [3] (setting [5]) and in experiment [4] was not below 50% each time.
Turning to `NC(=O)c1nn(-c2cccnc2)cc1-c1ccccc1C(F)(F)F` [A-0044, 1-(pyridine-3-yl)-4-[2-(trifluoromethyl)phenyl]-1H-pyrazole-3-carboxamide], the mortality at 500 ppm in experiment [3] (setting [5]) was not below 50%.
Turning to `COc1cc(Cl)ccc1-c1cn(-c2cccnc2)nc1C(N)=O` [A-0634, 4-(4-chloro-2-methoxyphenyl)-1-(pyridine-3-yl)-1H-pyrazole-3-carboxamide], the mortality at 500 ppm in experiment [1], in experiment [2], in experiment [3] (setting [5]) and in experiment [4] was not below 50% throughout.
In the case of `COCC(=O)NC(=O)c1nn(-c2cccnc2)cc1-c1ccccc1C` [A-4808, N-(2-methoxyacetyl)-1-(pyridine-3-yl)-4-(2-methylphenyl)-1H-pyrazole-3-carboxamide], the mortality at 500 ppm in experiment [3] (setting [5]) and in experiment [4] was not below 50% each time.
Take `Cc1ccccc1-c1cn(-c2cccnc2)nc1C(N)=S` [A-8646, 1-(pyridine-3-yl)-4-(2-methylphenyl)-1H-pyrazole-3-carbothioamide]: the mortality at 500 ppm in experiment [1] and in experiment [4] was not below 50% in each case.
With `Cc1ccccc1-c1cn(-c2ccc[n+]([O-])c2)nc1C(N)=O` [A-8862, 3-[3-carbamoyl-4-(2-methylphenyl)-1H-pyrazole-1-yl]pyridine-1-oxide], the mortality at 500 ppm in experiment [3] (setting [5]) and in experiment [4] was not below 50% throughout.
Turning to `Cc1cccnc1-c1cn(-c2cccnc2)nc1C(N)=O` [B-0027, 4-(3-methylpyridine-2-yl)-1-(pyridine-3-yl)-1H-pyrazole-3-carboxamide], the mortality at 500 ppm in experiment [1], in experiment [2], in experiment [3] (setting [5]) and in experiment [4] was not below 50% each time.
Turning to `Cc1ccncc1-c1cn(-c2cccnc2)nc1C(N)=O` [B-0100, 4-(4-methylpyridine-3-yl)-1-(pyridine-3-yl)-1H-pyrazole-3-carboxamide], the mortality at 500 ppm in experiment [1], in experiment [2] and in experiment [4] was not below 50% in each case.
As to `CCOC(=O)c1nn(-c2cccnc2)cc1-c1ccccc1C(F)(F)F` [C-0044, Ethyl 1-(pyridine-3-yl)-4-(2-(trifluoromethyl)phenyl)-1H-pyrazole-3-carboxylate], the mortality at 500 ppm in experiment [3] (setting [5]) and in experiment [4] was not below 50% each time.
`CCOC(=O)c1nn(-c2cccnc2)cc1-c1ccc(Cl)cc1OC` [C-0634, Ethyl 4-(4-chloro-2-methoxyphenyl)-1-(pyridine-3-yl)-1H-pyrazole-3-carboxylate]: the mortality at 500 ppm in experiment [1] was not below 50%.
For the molecule `CCOC(=O)c1nn(-c2cccnc2)cc1I` [D-0003, ethyl 4-iodo-1-(pyridine-3-yl)-1H-pyrazole-3-carboxylate], the mortality at 500 ppm in experiment [2] and in experiment [3] (setting [5]) was not below 50% each time.
In the case of `CCOC(=O)c1nn(-c2cccnc2)cc1OS(=O)(=O)C(F)(F)C(F)(F)C(F)(F)C(F)(F)F` [D-0008, Ethyl 4-{[(nonafluorobutyl)sulfonyl]oxy}-1-(pyridine-3-yl)-1H-pyrazole-3-carboxylate], the mortality at 500 ppm in experiment [3] (in Cucumis sativus) is not below 50%.
Take `CCOC(=O)c1nn(-c2cccnc2)cc1-c1ncccc1C` [D-0035, Ethyl 4-(3-methylpyridine-2-yl)-1-(pyridine-3-yl)-1H-pyrazole-3-carboxylate]: the mortality at 500 ppm in experiment [1], in experiment [2], in experiment [3] (setting [5]) and in experiment [4] was not below 50% each time.
Turning to `CCOC(=O)c1nn(-c2cccnc2)cc1-c1cnccc1C` [D-0108, Ethyl 4-(4-methylpyridine-3-yl)-1-(pyridine-3-yl)-1H-pyrazole-3-carboxylate], the mortality at 500 ppm in experiment [1], in experiment [2] and in experiment [3] (setting [5]) was not below 50% each time.
On to `Cc1ccncc1-c1cn(-c2cccnc2)nc1C(=O)O` [F-0108, 4-(4-methylpyridine-3-yl)-1-(pyridine-3-yl)-1H-pyrazole-3-carboxylic acid], for which the mortality at 500 ppm in experiment [1] and in experiment [2] was not below 50% throughout.
